{"source": "patent US11477985B2", "about": "“Herbicidal mixtures comprising L-glufosinate or its salt and at least one photosynthesis inhibitor” (BASF SE, priority 2017, dated 2022)", "format_in_all_cases": "in vivo", "key": {"[1]": {"system": "Avena fatua", "assay": "Post emergence treatment, greenhouse pot test, herbicidal activity against AVEFA", "excerpt": "(§1) Synergism can be described as an interaction where the combined effect of two or more compounds is greater than the sum of the individual effects of each of the compounds. The presence of a synergistic effect in terms of percent control, between two mixing partners (X and Y) can be calculated using the Colby equation (Colby, S. R., 1967, Calculating Synergistic and\n(§2) When the observed combined control effect is greater than the expected (calculated) combined control effect (E), then the combined effect is synergistic.\n(§3) However, the weed control afforded by the compounds, mixtures or compositions is not limited to these species. The analysis of synergism or antagonism between the mixtures or compositions was determined using Colby's equation.\n(§4) The culture containers used were plastic flowerpots containing loamy sand with approximately 3.0% of humus as the substrate. The seeds of the test plants were sown separately for each species and/or resistant biotype. For the pre-emergence treatment, the active ingredients, which had been suspended or emulsified in water, were applied directly after sowing by means of finely distributing nozzles. The containers were irrigated gently to promote germination and growth and subsequently covered with transparent plastic hoods until the plants had rooted. This cover caused uniform germination of the test plants, unless this had been impaired by the active ingredients. For the post-emergence treatment, the test plants were first grown to a height of 3 to 15 cm, depending on the plant habit, and only then treated with the active ingredients which had been suspended or emulsified in water. For this purpose, the test plants were either sown directly and grown in the same containers, or they were first grown separately as seedlings and transplanted into the test containers a few days prior to treatment. Depending on the species, the plants were kept at 10-25° C. or 20-35° C., respectively. The test period extended to 20 days after treatment. During this time, the plants were tended, and their response to the individual treatments was evaluated. […]"}, "[2]": {"system": "Abutilon theophrasti", "assay": "Post emergence treatment, greenhouse pot test, herbicidal activity against ABUTH", "conditions": "scale 0 to 100", "excerpt": "as §1, §2, §3, §4"}, "[3]": {"system": "Setaria viridis", "assay": "Post emergence treatment, greenhouse pot test, herbicidal activity against SETVI", "conditions": "scale 0 to 100", "excerpt": "as §1, §2, §3, §4"}}, "data": [{"smiles": "CN(C)C(=O)Nc1ccc(Cl)c(Cl)c1", "note": "[Diuron, diuron]", "values": [{"measurement": "Herbicidal activity against AVEFA, Found", "setting": "[1]; Diuron 125 g ai/ha alone, scale 0 to 100", "result": 20}, {"measurement": "Herbicidal activity against AVEFA, Found", "setting": "[1]; Diuron 250 g ai/ha alone, scale 0 to 100", "result": 30}]}, {"smiles": "CN(C)C(=O)Nc1cccc(C(F)(F)F)c1", "note": "[Fluometuron, fluometuron]", "values": [{"measurement": "Herbicidal activity against ABUTH, Found", "setting": "[2]; Fluometuron 125 g ai/ha alone", "result": 0}, {"measurement": "Herbicidal activity against ABUTH, Found", "setting": "[2]; Fluometuron 250 g ai/ha alone", "result": 20}]}, {"smiles": "CP(=O)(O)CC[C@H](N)C(=O)O", "note": "[L-Glufosinate, (2S)-2-amino-4-[hydroxy(methyl)phosphinoyl]butyric acid]", "values": [{"measurement": "Herbicidal activity against AVEFA, Found", "setting": "[1]; L-Glufosinate 300 g ai/ha alone, scale 0 to 100, mean of two replications", "result": 20}, {"measurement": "Herbicidal activity against ABUTH, Found", "setting": "[2]; L-Glufosinate 75 g ai/ha alone", "result": 0}, {"measurement": "Herbicidal activity against SETVI, Found", "setting": "[3]; L-Glufosinate 75 g ai/ha alone", "result": 0}, {"measurement": "Herbicidal activity against SETVI, Found", "setting": "[3]; L-Glufosinate 150 g ai/ha alone", "result": 70}]}, {"smiles": "O=C(Nc1ccccc1)Nc1cnns1", "note": "[Thidiazuron, thiadizuron]", "values": [{"measurement": "Herbicidal activity against SETVI, Found", "setting": "[3]; Thidiazuron 50 g ai/ha alone", "result": 0}]}]}
